Measurements as given in the supplement of paper PMC5908809.

What was measured:
[1] = test system: normal NK cells expanded with K562-aAPC; assay: percent inhibition of viability; higher = more inhibition; conditions: 72 h, IL-2 2.5 ng/mL
Experimental: (§1)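 Drug sensitivity and resistance testing on K562-aAPC-expanded normal NK cells: 5 concentrations (10-fold steps over a 10,000-fold range), 72 h at 37 °C, viability by CellTiter-Glo normalised to DMSO and benzethonium chloride controls; DSS from the fitted curve.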

[2] = test system: DERL-7 (IL-2 2.5 ng/mL); assay: as above; conditions: 72 h
[3] = test system: IMC-1 (IL-2 20 ng/mL); assay: as above; conditions: 72 h
[4] = test system: KAI3 (IL-2 2.5 ng/mL); assay: as above; conditions: 72 h
[5] = test system: KHYG-1 (IL-2 2.5 ng/mL); assay: as above; conditions: 72 h
[6] = test system: NK-92 (IL-2 2.5 ng/mL); assay: as above; conditions: 72 h
[7] = test system: NK-YS (IL-2 2.5 ng/mL); assay: as above; conditions: 72 h
[8] = test system: NKL (IL-2 2.5 ng/mL); assay: as above; conditions: 72 h
[9] = test system: SNK-6 (IL-2 2.5 ng/mL); assay: as above; conditions: 72 h
[10] = test system: YT (IL-2 2.5 ng/mL); assay: as above; conditions: 72 h
[11] = test system: normal primary NK cells, pool 1 (3 donors) (IL-2 2.5 ng/mL); assay: as above; conditions: 72 h
[12] = test system: normal primary NK cells, pool 1 (3 donors), resting (IL-2 0 ng/mL); assay: as above; conditions: 72 h
[13] = test system: normal primary NK cells, pool 2 (3 donors) (IL-2 2.5 ng/mL); assay: as above; conditions: 72 h
[14] = test system: normal primary NK cells, pool 3 (3 donors) (IL-2 2.5 ng/mL); assay: as above; conditions: 72 h
[15] = test system: normal NK cells expanded with K562-aAPC; assay: drug sensitivity score (DSS) (DSS units); higher = more sensitive; extreme values may be limits of the assay; conditions: 72 h; IL-2 2.5 ng/mL
Experimental: as §1

[16] = test system: DERL-7 (IL-2 2.5 ng/mL); assay: as above; conditions: 72 h
[17] = test system: IMC-1 (IL-2 20 ng/mL); assay: as above; conditions: 72 h
[18] = test system: KAI3 (IL-2 2.5 ng/mL); assay: as above; conditions: 72 h
[19] = test system: KHYG-1 (IL-2 2.5 ng/mL); assay: as above; conditions: 72 h
[20] = test system: NK-92 (IL-2 2.5 ng/mL); assay: as above; conditions: 72 h
[21] = test system: NK-YS (IL-2 2.5 ng/mL); assay: as above; conditions: 72 h
[22] = test system: NKL (IL-2 2.5 ng/mL); assay: as above; conditions: 72 h
[23] = test system: SNK-6 (IL-2 2.5 ng/mL); assay: as above; conditions: 72 h
[24] = test system: YT (IL-2 2.5 ng/mL); assay: as above; conditions: 72 h
[25] = test system: normal primary NK cells, pool 1 (3 donors) (IL-2 2.5 ng/mL); assay: as above; conditions: 72 h
[26] = test system: normal primary NK cells, pool 1 (3 donors), resting (IL-2 0 ng/mL); assay: as above; conditions: 72 h
[27] = test system: normal primary NK cells, pool 2 (3 donors) (IL-2 2.5 ng/mL); assay: as above; conditions: 72 h
[28] = test system: normal primary NK cells, pool 3 (3 donors) (IL-2 2.5 ng/mL); assay: as above; conditions: 72 h

O=C(Nc1cc(Cl)cc2c1[nH]c1cnccc12)c1cccnc1 [PS-1145] (max concentration tested 25000 nM)
percent inhibition of viability ([1]; 2.5 nM): 2.02%
percent inhibition of viability ([1]; 25 nM): 0.77%
percent inhibition of viability ([1]; 250 nM): -1.48%
percent inhibition of viability ([1]; 2500 nM): -6.16%
percent inhibition of viability ([1]; 25000 nM): 6.75%
percent inhibition of viability ([2]; 2.5 nM): -3.2%
percent inhibition of viability ([2]; 25 nM): -13%
percent inhibition of viability ([2]; 250 nM): 1.95%
percent inhibition of viability ([2]; 2500 nM): -4.1%
percent inhibition of viability ([2]; 25000 nM): -8.03%
percent inhibition of viability ([3]; 2.5 nM): -6.22%
percent inhibition of viability ([3]; 25 nM): -1.55%
percent inhibition of viability ([3]; 250 nM): 3.4%
percent inhibition of viability ([3]; 2500 nM): 7.36%
percent inhibition of viability ([3]; 25000 nM): 16%
percent inhibition of viability ([4]; 2.5 nM): 5.94%
percent inhibition of viability ([4]; 25 nM): 6.21%
percent inhibition of viability ([4]; 250 nM): 4.4%
percent inhibition of viability ([4]; 2500 nM): 48.5%
percent inhibition of viability ([4]; 25000 nM): 75%
percent inhibition of viability ([5]; 2.5 nM): 5.69%
percent inhibition of viability ([5]; 25 nM): 5.58%
percent inhibition of viability ([5]; 250 nM): 12.9%
percent inhibition of viability ([5]; 2500 nM): 7.66%
percent inhibition of viability ([5]; 25000 nM): 16.4%
percent inhibition of viability ([6]; 2.5 nM): -0.17%
percent inhibition of viability ([6]; 25 nM): -20.2%
percent inhibition of viability ([6]; 250 nM): -5.95%
percent inhibition of viability ([6]; 2500 nM): 4.6%
percent inhibition of viability ([6]; 25000 nM): 23.6%
percent inhibition of viability ([7]; 2.5 nM): 0.26%
percent inhibition of viability ([7]; 25 nM): 0.9%
percent inhibition of viability ([7]; 250 nM): 2.11%
percent inhibition of viability ([7]; 2500 nM): 7.41%
percent inhibition of viability ([7]; 25000 nM): 11.3%
percent inhibition of viability ([8]; 2.5 nM): 12.7%
percent inhibition of viability ([8]; 25 nM): 11.1%
percent inhibition of viability ([8]; 250 nM): 10.4%
percent inhibition of viability ([8]; 2500 nM): 9.5%
percent inhibition of viability ([8]; 25000 nM): 20.8%
percent inhibition of viability ([9]; 2.5 nM): -11.2%
percent inhibition of viability ([9]; 25 nM): 3.19%
percent inhibition of viability ([9]; 250 nM): -6.13%
percent inhibition of viability ([9]; 2500 nM): 14.1%
percent inhibition of viability ([9]; 25000 nM): 16.6%
percent inhibition of viability ([10]; 2.5 nM): 3.94%
percent inhibition of viability ([10]; 25 nM): 1.19%
percent inhibition of viability ([10]; 250 nM): 1.07%
percent inhibition of viability ([10]; 2500 nM): 4.91%
percent inhibition of viability ([10]; 25000 nM): 13.9%
percent inhibition of viability ([11]; 2.5 nM): 5.83%
percent inhibition of viability ([11]; 25 nM): -8.31%
percent inhibition of viability ([11]; 250 nM): 15.4%
percent inhibition of viability ([11]; 2500 nM): 7.93%
percent inhibition of viability ([11]; 25000 nM): 11.5%
percent inhibition of viability ([12]; 2.5 nM): -26.1%
percent inhibition of viability ([12]; 25 nM): -30.6%
percent inhibition of viability ([12]; 250 nM): 0.68%
percent inhibition of viability ([12]; 2500 nM): -5.12%
percent inhibition of viability ([12]; 25000 nM): -6.42%
percent inhibition of viability ([13]; 2.5 nM): -19.7%
percent inhibition of viability ([13]; 25 nM): -10.7%
percent inhibition of viability ([13]; 250 nM): 3.18%
percent inhibition of viability ([13]; 2500 nM): 6.82%
percent inhibition of viability ([13]; 25000 nM): 10.1%
percent inhibition of viability ([14]; 2.5 nM): -2.28%
percent inhibition of viability ([14]; 25 nM): -6.49%
percent inhibition of viability ([14]; 250 nM): 7.93%
percent inhibition of viability ([14]; 2500 nM): 14.6%
percent inhibition of viability ([14]; 25000 nM): 10.4%
drug sensitivity score [15]: 0
drug sensitivity score [16]: 0
drug sensitivity score [17]: 0.51
drug sensitivity score [18]: 10.1
drug sensitivity score [19]: 0.87
drug sensitivity score [20]: 1.52
drug sensitivity score [21]: 0.04
drug sensitivity score [22]: 0
drug sensitivity score [23]: 1.45
drug sensitivity score [24]: 0.38
drug sensitivity score [25]: 0.64
drug sensitivity score [26]: 0
drug sensitivity score [27]: 0
drug sensitivity score [28]: 1.86
